Patent US20100069343A1, “Methods of predicting steroid responsiveness with Il-1RII” (priority 2008, published 2010)
Values joined by “and” are separate entries in the source; they are usually repeats but may differ in a detail not shown here. Identical values can stand only once.

Columns and labels:
IL-1RA, IL-1β = details: experimentally; cited from earlier work
[1] = compared to placebo; cited from earlier work
mIL-1RII = experiment: Pre- and post-steroid therapy mIL-1RII expression in PBMC by Q-RT-PCR; format: in vivo, human; details: subset
Protocol: FIG. 5B. Pre- and post-treatment mIL-1RII levels in a subset of clinical responders and non-responders. Responders have essentially zero basal mIL-1RII expression, compared with non-responders that have substantially higher basal levels.
Q-RT-PCR. Quantitative Real Time RT-PCR (Q-RT-PCR) was performed on PBMC from patients using TaqMan chemistry. The relative abundance of IL1R2 mRNA for 2 membrane bound (mIL-1RII) and the soluble (sIL-1RII) coding regions associated with the 2 Affymetrix probes sets 211372 (sIL-1RII) and 205403 (mIL-1RID compared to β-actin was determined using the Eurogentec RTqPCR mastermix (Eurogentec, Belgium) and ABI PRISM 7700 Sequence Detection System. Membrane bound IL-1RII, as reflected by Affymetrix probe set 205403 was detected by primers nt 1239-1258, 1295-1314, and taqman probe 1271-1278, whereas the shorter soluble form (sIL-1RII) reflected by the Affymetrix probe 211372 and primers nt 790-830-849, and taqman probe 820-827. […] Data was analyzed using Sequence Detection System software version 1.9.1. Results were expressed as Ct (Threshold cycle) values, which is inversely proportional to the starting template copy number. Relative abundance of IL1R2 in […] cells was calculated compared to untreated control samples using delta delta Ct method (User Bulletin #2, Applied Biosystems Inc). […]

patients with AIED = experiment: Prednisone treatment of AIED patients with sudden hearing decline, pre/post-treatment audiograms; format: in vivo, human; details: for AVG Improve: 60 mg prednisone daily 7 days then taper
Protocol: FIG. 5A. 10 patients with presumptive AIED and sudden declines in hearing were enrolled, blood samples were taken and then the patients were treated with 60 mg prednisone/day×7 days and then tapered. Post-treatment audiograms were obtained between 7-14 days later. Improvement (Δ) was measured as the average of 500, 1, 2, 4 & 8 kHz. […] The patient that improved 13.3 dB represented a patient that returned to normal hearing thresholds. PBMC were isolated, divided and cultured for 16 hours with either 0 μg/ml or increasing concentrations of dexamethasone (8, 20, 40 or 80 μg/ml). Fold changes in levels of mIL-1RII by Q-RT-PCR after in vitro challenge with dexamethasone (expressed as fold change over baseline) predicted steroid responsiveness in AIED. In data on 7 subjects, the fold-increase was log-transformed in order to better meet the assumptions of a normal distribution with equal variance.
Prospectively Enrolled, Steroid Treated Subjects. Ten patients with AIED who had not undergone cochlear implantation were studied in a separate IRB approved protocol. […] The responders were defined as a 10 dB or greater average improvement at 250, 500, 1000, 2000, 4000 and 8000 Hz. […] Furthermore, SNHL of greater than 30 dB at one or more frequencies in both ears with evidence of active deterioration (elevated threshold) in at least one ear of 15 dB at one frequency (excluding 250 or 8 kHz as a sole indicator), or 10 dB at 2+ frequencies developing in >3 days but <90 days (Niparko et al. 2005, Yeom et al. 2003). If the hearing loss evolved in less than 3 days, prior similar hearing declines must have occurred or the patient must have a systemic autoimmune disorder AND the patient must meet the audiology criteria outlined above. All patients with retrocochlear (vestibular schwannoma or other internal auditory canal s) pathology), patients who received prednisone or other immunosuppressive therapy within 3 months, or patients with vestibular symptoms coinciding with periods of hearing fluctuation were all excluded from this study. All patients received a minimum of 60 mg of prednisone daily for 7 days with a variable taper thereafter.
60% of patients studied by the AIED study group were steroid responsive (Niparko et al. 2005). In the present study, in vitro PBMC membrane-bound IL-IRII (mIL-1RII) mRNA expression in response to dexamethasone stimulation was compared to basal mIL-1RII expression in cultures of PBMCs collected prior to clinical steroid treatment. In addition, pre-treatment mIL-1RII expression was compared to post-treatment hearing recovery. Furthermore, pre- and post-treatment mIL-1RII expression were compared in a subset of clinical responders and non-responders. […] All responders returned to their prior baseline hearing thresholds at the end of the corticosteroid treatment. Non-responders were defined as less than 5 dB improvement at the same frequencies or further decline of pure tone thresholds. […] Of note, the dramatic difference in fold change of the corticosteroid responders is inversely proportional to basal mIL-1RII expression in PBMC (45 cycles, S.D. 0.0 in replicate samples) in an unstimulated condition, compared to corticosteroid non-responders (28.48 cycles, S.D.±3.34) (FIG. 5B, p<0.0001). In all patient samples, the unstimulated condition is the average of 2 independent cultured PBMC samples. Furthermore, post-steroid therapy mIL-1RII expression was determined in a subset of patients.

TNF-α = details: animal studies, inner ear; cited from earlier work

For `CN(Cc1cnc2nc(N)nc(N)c2n1)c1ccc(C(=O)N[C@@H](CCC(=O)O)C(=O)O)cc1` [methotrexate], the IL-1RA release (IL-1RA, IL-1β) is given as “stimulates IL-1RA release”, the IL-1β synthesis (IL-1RA, IL-1β) is given as “inhibits IL-1β synthesis” and the maintenance of hearing [1] is given as “could not maintain hearing”.
In the case of `C[C@]12C=CC(=O)C=C1CC[C@@H]1[C@@H]2C(=O)C[C@@]2(C)[C@H]1CC[C@]2(O)C(=O)CO` [prednisone], the “mIL-1RII expression detected post-treatment” value (mIL-1RII; clinical non-responders, pre-treatment 30 cycles) is reported as 27 cycles, the “mIL-1RII expression detected post-treatment” value (mIL-1RII; clinical responders, pre-treatment no expression at 45 cycles) is reported as 30 cycles and the “hearing outcome of responders” value (patients with AIED; Responders (R), post-treatment audiograms 7-14 days later) is reported as “returned to prior baseline hearing”. The “AVG Improve” value (patients with AIED; patient 39WM (R3)) was 13.3 dB and 13 dB, the “AVG Improve” value (patients with AIED; patient 42 (NR2)) was 0 dB and the “AVG Improve” value (patients with AIED; patient 45WM (NR 5), (NS)) was 1 dB. The “AVG Improve” value (patients with AIED; patient 54 (R2)) was 33 dB, the “AVG Improve” value (patients with AIED; patient 56 (R1)) was 38 dB and the “AVG Improve” value (patients with AIED; patient 56WM (NR1)) was 0 dB. The “AVG Improve” value (patients with AIED; patient 57 (NR4)) was 0 dB, the “AVG Improve” value (patients with AIED; patient 60WF (NR7), (NS)) was 4 dB and the “AVG Improve” value (patients with AIED; patient 61HF (NR3)) was 0 dB. The “AVG Improve” value (patients with AIED; patient 62 (NR6)) was 0dB.
For Etanercept, the “TNF-α release after administration of antigen” value (TNF-α) is listed as “can be reversed”.
